Results: ChEMBL document CHEMBL1134362, “New 3'-azido-3'-deoxythymidin-5'-yl O-(omega-hydroxyalkyl) carbonate prodrugs: synthesis and anti-HIV evaluation” (J Med Chem, 2001)
pEC50: −log10 of the molar value.

Columns and labels:
[1] = Selectivity index (CC50/EC50).; type: functional
[2] = system: Human immunodeficiency virus 1; experiment: Inhibition of HIV-1 (BRU) cytopathicity in MT-4 (human leukemia).; type: functional, organism-based
[3] = Partition coefficient (logP); type: physicochemical; conditions: octanol/water
Homo sapiens = species on record: Homo sapiens; experiment: Time required for 50%hydrolysis of prodrug to AZT in normal human serum was determined; type: ADME, organism-based
MT4 = experiment: Cytotoxicity against MT-4 (human leukemia) cells.; type: functional
[4] = system: Human immunodeficiency virus 1; experiment: Inhibition of HIV-1 (IIIB) cytopathicity in human peripheral blood mononuclear cells.; type: functional, organism-based
[5] = (§1) Cytotoxicity against human peripheral blood mononuclear cells.; type: functional
[6] = system: Human immunodeficiency virus 1; experiment: Inhibition of HIV-1 (BaL) cytopathicity in human peripheral blood mononuclear cells.; type: functional, organism-based
[7] = as §1; type: functional; remark: listed apart in the source

SMILES	SI [1]	pEC50 [2]	logP ([3]; read-out: logP)	T1/2 (Homo sapiens) [min]	CC50 (MT4) [µM]	logP [3]	pEC50 [4]	CC50 [5] [µM]	pEC50 [6]	CC50 [7] [µM]
Cc1cn(C2CC(N=[N+]=[N-])C(COC(=O)NCCCN)O2)c(=O)[nH]c1=O (stereo not given)	> 5000	8.00	-1.19	> 2880	> 50	–	–	–	–	–
Cc1cn(C2CC(N=[N+]=[N-])C(COC(=O)OCCCCCCO)O2)c(=O)[nH]c1=O (stereo not given)	> 5000	8.00	0.08	7	> 50	–	–	–	–	–
Cc1cn(C2CC(N=[N+]=[N-])C(COC(=O)CCCO)O2)c(=O)[nH]c1=O (stereo not given)	–	–	-0.95	–	–	–	–	–	–	–
Cc1cn(C2CC(N=[N+]=[N-])C(COC(=O)OCCCCCO)O2)c(=O)[nH]c1=O (stereo not given)	> 5000	8.00	-0.45	16	> 50	–	–	–	–	–
Cc1cn(C2CC(N=[N+]=[N-])C(COC(=O)CCCN)O2)c(=O)[nH]c1=O (stereo not given)	> 2500	7.70	-0.9	26	> 50	–	–	–	–	–
Cc1cn(C2CC(N=[N+]=[N-])C(COC(=O)NCCCO)O2)c(=O)[nH]c1=O (stereo not given)	> 500	7.00	-1.24	> 2880	> 50	–	–	–	–	–
Cc1cn(C2CC(N=[N+]=[N-])C(COC(=O)OCCCC(=O)O)O2)c(=O)[nH]c1=O (stereo not given)	> 10000	8.30	-0.55	780	> 50	–	–	–	–	–
Cc1cn(C2CC(N=[N+]=[N-])C(COC(=O)NCCCC(=O)O)O2)c(=O)[nH]c1=O (stereo not given)	> 500	7.00	-0.81	> 2880	> 50	–	–	–	–	–
Cc1cn(C2CC(N=[N+]=[N-])C(COC(=O)NCCCC(=O)OC(C)(C)C)O2)c(=O)[nH]c1=O (stereo not given)	> 5000	8.00	0.88	> 2880	> 50	–	–	–	–	–
Cc1cn(C2CC(N=[N+]=[N-])C(COC(=O)OCCCN)O2)c(=O)[nH]c1=O (stereo not given)	> 2500	7.70	-0.93	8	> 50	–	–	–	–	–
Cc1cn(C2CC(N=[N+]=[N-])C(COC(=O)CCCC(=O)O)O2)c(=O)[nH]c1=O (stereo not given)	> 7140	8.15	–	1800	> 50	-0.52	–	–	–	–
Cc1cn([C@H]2C[C@H](N=[N+]=[N-])[C@@H](CO)O2)c(=O)[nH]c1=O [ZIDOVUDINE]	–	7.60	–	–	> 100	–	8.12	8	7.96	11
CCCCOC(=O)OCC1OC(n2cc(C)c(=O)[nH]c2=O)CC1N=[N+]=[N-] (stereo not given)	> 6250	8.10	1.02	9	> 50	–	–	–	–	–
Cc1cn(C2CC(N=[N+]=[N-])C(COC(=O)OCCCCCCCCO)O2)c(=O)[nH]c1=O (stereo not given)	> 20000	8.60	1.14	2	> 50	–	–	–	–	–
Cc1cn(C2CC(N=[N+]=[N-])C(COC(=O)OCCCCO)O2)c(=O)[nH]c1=O (stereo not given)	–	9.30	–	30	> 50	-0.68	9.11	29	9.11	24
Cc1cn(C2CC(N=[N+]=[N-])C(COC(=O)OCCCC(=O)OC(C)(C)C)O2)c(=O)[nH]c1=O (stereo not given)	> 10000	8.30	1.14	16	> 50	–	–	–	–	–
Cc1cn(C2CC(N=[N+]=[N-])C(COC(=O)CCCC(=O)OC(C)(C)C)O2)c(=O)[nH]c1=O (stereo not given)	> 10000	8.30	1.17	33	> 50	–	–	–	–	–
Cc1cn(C2CC(N=[N+]=[N-])C(COC(=O)OCCO)O2)c(=O)[nH]c1=O (stereo not given)	> 5000	8.00	–	< 1	> 50	-1.2	–	–	–	–
Cc1cn(C2CC(N=[N+]=[N-])C(COC(=O)OCCCO)O2)c(=O)[nH]c1=O (stereo not given)	> 5000	8.00	–	10	> 50	-0.98	–	–	–	–
